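A five-concentration, 48-hour dose response in 96-well plates underlies each endpoint, interpolated linearly between surrounding concentrations. At the GI50, growth is halved.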 The source made the active and inactive calls. Rule as the data show it: active = GI50 up to about 1.1 µM and inactive = higher. Where a SMILES comes first, the peptide text is derived from it. [ ]: non-standard residue; d: D form. The star is where a group is joined. Cbz = O=C(OCc1ccccc1)*; Aib = CC(C)(N)C(=O)O; OBn = c1ccc(CO*)cc1
Legend:
Experiment in all cases: NCI-60 cell line screen, 48 h
MDA-MB-231 = tested on: MDA-MB-231
NCI-H460 = tested on: NCI-H460
DU-145 = tested on: DU-145
MCF7 = tested on: MCF7
PC-3 = tested on: PC-3
NCI-H522 = tested on: NCI-H522
T47D = tested on: T47D
HL-60 = tested on: HL-60
IGROV-1 = tested on: IGROV-1
SF-268 = tested on: SF-268
CCRF-CEM = tested on: CCRF-CEM
HCT-116 = tested on: HCT-116
Malme-3M = tested on: Malme-3M
RPMI-8226 = tested on: RPMI-8226
CAKI-1 = tested on: CAKI-1
K562 = tested on: K562
MDA-MB-435 = tested on: MDA-MB-435
SN12C = tested on: SN12C
SF-539 = tested on: SF-539
LOX IMVI = tested on: LOX IMVI

Measured: GI50

CC(C)(CCC(C)(C)c1ccccc1)c1ccccc1
inactive: MDA-MB-231 16.7 µM | NCI-H460 17.2 µM | DU-145 18.4 µM | MCF7 17.9 µM | PC-3 30.8 µM | NCI-H522 15.7 µM | T47D 16.7 µM | HL-60 16.3 µM | IGROV-1 24.9 µM | SF-268 17.3 µM | CCRF-CEM 18.4 µM | HCT-116 14.7 µM | Malme-3M 16 µM | RPMI-8226 15.1 µM | CAKI-1 22.5 µM | K562 21.8 µM | MDA-MB-435 21.9 µM | SN12C 18.2 µM | SF-539 21.1 µM | LOX IMVI 17.5 µM

COC(=O)c1cc(/C=C2\Cc3cc4c(cc3C2=O)CCC4)cc2c1CCC2
inactive: MDA-MB-231 > 100 µM | NCI-H460 > 100 µM | DU-145 > 100 µM | MCF7 > 100 µM | PC-3 > 100 µM | NCI-H522 > 100 µM | T47D > 100 µM | HL-60 > 100 µM | IGROV-1 > 100 µM | SF-268 > 100 µM | CCRF-CEM > 100 µM | HCT-116 63 µM | Malme-3M > 100 µM | RPMI-8226 > 100 µM | CAKI-1 > 100 µM | K562 > 100 µM | MDA-MB-435 > 100 µM | SN12C > 100 µM | SF-539 > 100 µM | LOX IMVI > 100 µM

COC1/C=C/OC2(C)Oc3c(C)c(O)c4c(c3C2=O)C(=O)C=C(NC(=O)/C(C)=C\C=C\C(C)C(OC=O)C(C)C(O)C(C)C(OC(C)=O)C1C)C4=O (stereo not given)
inactive: MDA-MB-231 13.4 µM | NCI-H460 21.1 µM | DU-145 18.8 µM | MCF7 2.93 µM | PC-3 10.3 µM | NCI-H522 2.45 µM | T47D 3.65 µM | HL-60 2.33 µM | IGROV-1 18.5 µM | SF-268 17.7 µM | CCRF-CEM 2.03 µM | HCT-116 4.82 µM | Malme-3M 13.4 µM | RPMI-8226 5.22 µM | CAKI-1 12 µM | K562 3.61 µM | MDA-MB-435 16 µM | SN12C 15.2 µM | SF-539 17.6 µM | LOX IMVI 7.5 µM

CC(NC(=O)C(C)(C)NC(=O)C(CC(=O)OCc1ccccc1)NC(=O)OCc1ccccc1)C(N)=O (stereo not given) (Cbz-Asp(OBn)-[Aib]-Ala-NH2; configuration not given here)
inactive: MDA-MB-231 > 100 µM | NCI-H460 > 100 µM | DU-145 > 100 µM | MCF7 > 100 µM | PC-3 > 100 µM | NCI-H522 > 100 µM | T47D > 100 µM | HL-60 > 100 µM | IGROV-1 > 100 µM | SF-268 > 100 µM | CCRF-CEM > 100 µM | HCT-116 > 100 µM | Malme-3M > 100 µM | RPMI-8226 > 100 µM | CAKI-1 > 100 µM | K562 > 100 µM | MDA-MB-435 > 100 µM | SN12C > 100 µM | SF-539 > 100 µM | LOX IMVI > 100 µM

Reference: ChEMBL document CHEMBL1201862, “PubChem BioAssay data set” (2004)
